In ChEMBL document CHEMBL3507680, “University of Dundee, Gates Library screen for HepG2 cell viability”:

Test: Human HepG2 cell viability assay in 384 well format
Format: toxicity, cell-based
Parameters: dose 125 nL, time 70.5 hour; cytotoxicity at 70.5 h: concentration not given beside the values
Settings: HepG2 cells, read-out: Inhibition

| Compound | cytotoxicity at 70.5 h [%] |
| --- | --- |
| CCS(=O)(=O)N1CCCC(c2nccn2Cc2ccccn2)C1 (stereo not given) | -2.1 |
| CCS(=O)(=O)c1ncc(CN2CCCC2)n1CCc1ccccc1 | -12.5 |
| O=C(NCc1ccccc1-n1cccn1)C1CC2(CCNCC2)CN1 (stereo not given) | -1.74 |
| CC(C)c1noc(C2CCCN2C(=O)CN2CCc3ccccc32)n1 (stereo not given) | 23.7 |
| NC(=O)c1cc2c(nc1CCOCc1ccccc1)CCC2 | -8.58 |
| CCN1CCN(C(=O)CCC2CCN(C(C)CCC(=O)OC)CC2)CC1 (stereo not given) | 8.92 |
| CSc1ncc(CNCC2(N3CCCCC3)Cc3ccccc3C2)cn1 | -1.26 |
| O=C(NCc1cn2c(n1)SCC2)c1cn(CCN2CCCCC2)nn1 | 17.2 |
| CNc1ccnc(N2CCCC(C(=O)c3ccccn3)C2)n1 (stereo not given) | 24.1 |
| Oc1ccc(CCC2CCCCN2Cc2noc(C3CC3)n2)cc1 (stereo not given) | 15.5 |
| O=c1cc(N2CCNCC2)cnn1Cc1noc(C2CCCC2)n1 | -23.8 |
| COc1cccc(OCCNS(C)(=O)=O)c1 | 1.43 |
| CCC(=O)N1CCN(c2cc(-n3cnc(C)c3C)nc(C)n2)CC1 | 20.4 |
| CN(Cc1nccn1C)CC1CCOc2ccccc2C1 (stereo not given) | 22.3 |
| CC(=O)N1CCN(c2cc(-n3cnc(C)c3C)nc(C)n2)CC1 | -6.25 |
| COCc1nc2ncc3c(=O)n(-c4cccc(OC)c4)ccc3n2n1 | 27.8 |
| Cc1ccc(C(=O)Nc2ccc(OC3CCN(C)CC3)cc2)c(C)c1 | -5.87 |
| CCC(=O)Nc1cccc(OCC(=O)N(C)Cc2nccn2CC)c1 | -2.37 |
| Cc1ccc2nc(N3CCN(CC(=O)NC(C)C)CC3)cc(C)c2c1 | -1.6 |
| Cc1ccc(N2CCN(C(=O)COc3ncccn3)CC2)nn1 | -7.37 |
| CC(C)c1ccc(OCC(=O)N(C)C)cc1 | -9.35 |
| Cc1ccc(C)c(C(=O)Nc2ccc(OC3CCN(C)CC3)cc2)c1 | -6.52 |
| O=C(NCCCc1ccc(F)cc1)c1ccc(N2CCOCC2)cc1 | 2.69 |
| CCc1noc(-c2cccc(NC(=O)C(C)(C)C)c2)n1 | -11.2 |
| Cc1cc(C(=O)NC(C)c2nnn[nH]2)c2cccc(C)c2n1 (stereo not given) | -0.0967 |
| FC(F)(F)c1nc(NC2CCCCC2)c2ccccc2n1 | -10.5 |
| Cc1cc(C)nc(N2C[C@H]3OC(=O)N(CCc4cccc(Cl)c4)[C@H]3C2)n1 | -0.529 |

| Compound | cytotoxicity at 70.5 h [%] |
| --- | --- |
| COCc1nc2ncc3c(=O)n(-c4ccc(OC)cc4)ccc3n2n1 | -5.86 |
| Cc1ccc(N2CC[C@]3(O)CCN(CCN4CCCC4=O)C[C@@H]3C2)nn1 | 0.21 |
| C[C@@H]1CN(CC(C)(C)N2CCCCC2)C[C@@]1(O)C1CC1 | -1.88 |
| Cc1ncc(C(=O)NCCOc2ccccc2F)c(C)n1 | 7.2 |
| COc1ccc(C(C(=O)O)N2CCN(C3CCCCC3)CC2)cc1OC (stereo not given) | 13.6 |
| Cc1ccc(CN2CCN(Cc3ccncc3)[C@@H]3CS(=O)(=O)C[C@@H]32)cc1 | -7.92 |
| CC(C)[C@H]1CN(CCS(C)(=O)=O)C[C@@H]1NC(=O)c1ccc(=O)[nH]c1 | -3.99 |
| N#Cc1ccc(C(=O)N2CCC(c3ncc[nH]3)CC2)cn1 | -7.49 |
| CNc1ncc(CN(C)c2nc(C3CCCC3)nc3c2cnn3C)cn1 | 6.56 |
| Cn1cccc1C(=O)N1CCC2(CCCN(CC3CC3)C2=O)C1 (stereo not given) | -4.86 |
| COc1nccnc1N1CCN(Cc2ccc3c(c2)OCO3)C(=O)C1 | 20.7 |
| COc1ccc(CC(=O)N2CC[C@H](CO)[C@H](O)C2)c(OC)c1 | -7.77 |
| Cc1cc(C(=O)N2CCC(n3cc(CO)nn3)CC2)ccc1F | -5.39 |
| CN(C)S(=O)(=O)N1CC[C@]2(O)CCN(Cc3cccc(C#N)c3)C[C@@H]2C1 | 9.63 |
| CCn1c(C2CCNCC2)nn(CCCc2ccccc2)c1=O | -5.09 |
| O=C(CCC(F)(F)F)N1CCCC(c2ncc[nH]2)C1 (stereo not given) | 42.3 |
| O=C1[C@H]2CC[C@H](CN(Cc3nnc(C4CC4)o3)C2)N1Cc1cscn1 | 18.5 |
| COCCOC1CCN(C(C(=O)O)c2ccc3c(c2)OCO3)CC1 (stereo not given) | -6.06 |
| CC(C)Oc1ccc2c(NC(=O)CN(C)C)nn(CC(F)(F)F)c2c1 | -19 |
| N#CC1CCN(C(=O)CN2CC(c3ccccc3)CC2=O)CC1 (stereo not given) | -4.6 |
| CN(C)C1CCCN(Cc2cccc(Cn3cccn3)c2)CC1 (stereo not given) | -1.58 |
| CN(C)S(=O)(=O)N1CCCC(CCC(=O)Nc2ccc(Cl)cc2)C1 (stereo not given) | 42.2 |
| O=C(NCc1ccc2c(c1)CCCO2)c1ccccc1C1CCNC1 (stereo not given) | -20.6 |
| CCc1ccc(CN(C)C(=O)c2cnc3c(c2)nc(N)n3CC)nc1 | -8.01 |
| Cc1cccc2cc(CN3CCC(O)(CN4CCCC4)CC3)c(=O)[nH]c12 | -0.171 |
| CC(C)=CCN1CCN(Cc2ncc[nH]2)[C@H]2CS(=O)(=O)C[C@H]21 | -4.55 |
| COCc1ncc(CN2CC[C@@](O)(COC)C(C)(C)C2)cn1 | -18.6 |

| Compound | cytotoxicity at 70.5 h [%] |
| --- | --- |
| CN(Cc1n[nH]c(=O)n1Cc1cccs1)S(C)(=O)=O | -0.816 |
| Cn1cccc1-c1cc(C(=O)NCCCc2csc(N)n2)[nH]n1 | 18.4 |
| CN(Cc1ccc2nsnc2c1)C(=O)CCc1cc2n(n1)CCCNC2 | -8.3 |
| Cc1cnc(C)c(-c2cc(O)c3c(c2)CN(Cc2nccs2)CCO3)n1 | -4.63 |
| CN(C)C(=O)N1CCn2nc(CNC(=O)CCc3ccccn3)cc2C1 | 13.6 |
| Cc1ccccc1[C@@H]1CN(Cc2ccc(C(F)(F)F)nc2)C[C@H]1C(=O)O | -4.46 |
| COc1ncccc1CN1CCc2[nH]cnc2C1CCSC (stereo not given) | 25.1 |
| CSc1ncccc1C(=O)N1CCC2(CC1)OCCCC2O (stereo not given) | -3.78 |
| CNC(=O)c1nc(Cn2ncc3ccccc3c2=O)no1 | -3.17 |
| CCc1cnc(C)nc1NCc1nc(COC)no1 | -6.43 |
| Cc1cc(C(=O)N[C@H]2CN(CCC(N)=O)C[C@@H]2C2CC2)sc1C | 9.55 |
| CC(=O)Nc1cccc(-c2ccccc2CCN)c1 | -1.04 |
| C/C=C(\C)CN(CCN1CCOCC1)Cc1ccco1 | -8.08 |
| CCn1nc(C)c(CCNC(=O)c2cccc(-n3cccn3)c2)c1C | -3.23 |
| Nc1nc(CN2CCCCC2Cn2cncn2)nc2ccccc12 (stereo not given) | 0.228 |
| CCc1nc(C2CCCN2Cc2cc(C)nc3ccccc23)no1 (stereo not given) | 2.62 |
| CC(C)c1nc(C2CCCN(C(=O)c3ccc(N(C)C)nn3)C2)no1 (stereo not given) | -1.24 |
| COc1ccc(C(=O)N2CCCC2c2noc(C(C)C)n2)nn1 (stereo not given) | -4.87 |
| Cc1nccc(C(=O)N2CCCC2c2noc(C(C)C)n2)n1 (stereo not given) | 22.8 |
| CCOc1ccc(C(=O)N2CCCC(n3nc(C)nc3C)C2)cc1 (stereo not given) | 1.39 |
| Cc1nc(C)n(C2CCCN(C(=O)c3ccc(F)c(F)c3)C2)n1 (stereo not given) | -2.21 |
| CCc1cnc(CN(C(C)=O)C2CCN(Cc3nccn3C)C2)o1 (stereo not given) | 1.08 |
| CC(=O)N(Cc1ncc(C(C)C)o1)C1CCN(CCn2cncn2)C1 (stereo not given) | -3.83 |
| CC(=O)N(Cc1ncc(C(C)C)o1)C1CCN(CC2CCC2)C1 (stereo not given) | -3.28 |
| CCc1nc(C2CCCN2Cc2nnc(C3CCC3)o2)no1 (stereo not given) | -2.49 |
| CC(C)c1ncc2c(n1)CN(Cc1nnc(Cc3ccccc3)o1)CC2 | -5.27 |
